Results as given in patent US20230181905A1, “Systems, Devices, and Methods for Enhancing the Neuroprotective Effects of Non-Invasive Gamma Stimulation with Pharmacological Agents” (Massachusetts Institute of Technology, priority 2021, published 2023).

Test system: LFP oscillations in the visual cortex
Assay: In vivo electrophysiology: LFP power and 40 Hz entrainment in visual cortex
Parameters: species or system mouse
Experimental: Next, it was aimed to understand how these treatments impacted the LFP oscillations and neuronal action potentials. First, in vivo awake animal electrophysiology was performed using high-density linear probes and verified whether 5×FAD mice with reduced microglia by Plx3397 treatment can entrain 40 Hz sensory stimulation. […] At the group level gamma stimulation increased gamma but not theta power as expected based on previous findings (2 W ANOVA, groups x frequency, F (1,6)=32.03, P=0.0013) (FIGS. 15A, 15B).
Mice were anaesthetized with isoflurane, restrained in a stereotactic apparatus and craniotomies were made exposing the visual cortex (AP: −3.2 & ML: +2.5). […] The reference electrode was targeted to the white matter tract above the hippocampus. Mice were allowed to recover for a period of 4 days.
Following a 2-3-day habitation period for the recording, recordings commenced with the animal allowed to move freely in their home cages. Data were acquired using Neuralynx SX system (Neuralynx, Bozeman, Mont., USA) and signals were sampled at 32,000 Hz. The position of animals was tracked using red light-emitting diodes affixed to the probes. At the conclusion of the experiment, mice underwent terminal anesthesia and electrode positions were marked by electrolytic lesioning of brain tissue with […] current for 10 s through each electrode individually, to confirm their anatomical location.
LFPs were first filtered to the Nyquist frequency of the target sampling rate then downsampled to 1000 Hz. Power spectral analyses were performed using the pwelch function in MATLAB using a 500 ms time window with a 50% overlap.
Mice were anaesthetized with isoflurane, restrained in a stereotactic apparatus and craniotomies were made exposing the visual cortex. Specifically, a 2×2 mm piece of skull was removed using a dental drill, which was above the V1 (stereotaxic 826 coordinates relative to bregma; AP −3.2; ML+2.5); during this entire procedure, the dura was kept intact and moist with saline. Following the skull removal from above both the right V1, two additional drilling holes above the frontal cortex were made and two skull screws were placed. […] The probe was grounded to skull screw above the cerebellum. Petroleum jelly (Vaseline, 100% white petrolatum) was gently applied on the cranial window without touching the probe/electrodes, which protected both the brain and probe/electrode. Next, the probe was further lowered and/or adjusted to reach the target depth. Finally, the probe was cemented on the skull with dental cements, first with a metabond (Parkell, C&B Metabond Quick Adhesive Cement System, #836 SKU:S380) followed by a dental cement from Steolting (#51459). Mice were allowed to recover for a period of 4 days.
Data analyses: LFPs were first filtered to the Nyquist frequency of the target sampling rate then down-sampled to 1000 Hz. Power spectral analyses were performed using the pwelch function in MATLAB using a 500 ms time window with a 50% overlap.
Time-frequency representation of LFP: The LFP data were down sampled to 1,000 Hz. For the calculation of the wavelet power spectrum, the continuous wavelet transforms (CWT) was applied to the LFP using complex Morlet wavelets returning amplitudes at 226 intervals between 1-100 Hz. CWT based wavelet power spectrum was shown in FIG. 21A, FIG. 26C, and FIG. 27C. For visualizing 40 Hz entrainment at finer frequency resolution, multitaper spectral analysis using Chronux toolbox was used.

For FC(F)(F)c1ccc(CNc2ccc(Cc3c[nH]c4ncc(Cl)cc34)cn2)cn1 [Plx3397, Pexidartinib], the “entrainment of 40 Hz sensory stimulation” value (5×FAD mice with microglia reduced by Plx3397, awake recording) was “can indeed entrain 40 Hz”, the LFP spectral power (5×FAD mice, Plx3397 diet 50 days vs control) was “no significant difference” and the “time-resolved LFP gamma and theta power” value (5×FAD mice, chronic Plx3397 administration) was “elevated power of gamma and theta that occur incongruently”. For the same compound, the gamma response latency (5×FAD mice, untreated vs Plx3397 treated) was “comparable”, the “power of 40 Hz entrainment compared to control 5×FAD mice” value (Plx3397 administered 5×FAD mice, acute 40 Hz stimulation) was “higher” and the aberrant theta-bursts (Plx3397 treated 5×FAD mice during acute 40 Hz visual stimulation) was “reduced”.
